Laboratory results reported in PMC4770715, “LIM kinase inhibitors disrupt mitotic microtubule organization and impair tumor cell proliferation” (Oncotarget, 2015).

Tests used:
Experiment in all cases: biochemical
Parameters in all cases: KINOMEscan active-site competition binding, percent of control (100 = no competition)
Conditions in all cases: competition binding, percent control
EIF2AK1 = EIF2AK1 (Homo sapiens, UniProt Q9BQI3)
EGFR = EGFR (Homo sapiens, UniProt P00533)
FLT3(D835Y) = FLT3(D835Y) (Homo sapiens, UniProt P36888, D835Y)
IRAK1 = IRAK1 (Homo sapiens, UniProt P51617)
GAK = GAK (Homo sapiens, UniProt O14976)
FLT3(D835H) = FLT3(D835H) (Homo sapiens, UniProt P36888, D835H)
MST1R = MST1R (Homo sapiens, UniProt Q04912)
DDR2 = DDR2 (Homo sapiens, UniProt Q16832)
CAMK1D = CAMK1D (Homo sapiens, UniProt Q8IU85)
ERBB4 = ERBB4 (Homo sapiens, UniProt Q15303)
CDKL1 = CDKL1 (Homo sapiens, UniProt Q00532)
EGFR(G719C) = EGFR(G719C) (Homo sapiens, UniProt P00533, G719C)
MYLK4 = MYLK4 (Homo sapiens, UniProt Q86YV6)
PRKG2 = PRKG2 (Homo sapiens, UniProt Q13237)
YSK1 = biological target: T1, YSK1 (Homo sapiens, UniProt O00506)
T1 construct: gene STK25

[1] = biological target: T2, RPS6KA5(Kin.Dom.1-N-terminal) (Homo sapiens, UniProt O75582)
T2 construct: Kin.Dom.1-N-terminal

BRK = biological target: T3, BRK (Homo sapiens, UniProt Q13882)
T3 construct: gene PTK6

DYRK1A = DYRK1A (Homo sapiens, UniProt Q13627)
ROCK2 = ROCK2 (Homo sapiens, UniProt O75116)
CTK = biological target: T4, CTK (Homo sapiens, UniProt P42679)
T4 construct: gene MATK

PIK3CA(M1043I) = PIK3CA(M1043I) (Homo sapiens, UniProt P42336, M1043I)
[2] = biological target: T5, ABL1(Q252H)-phosphorylated (Homo sapiens, UniProt P00519, Q252H)
T5 construct: phosphorylated

EPHB2 = EPHB2 (Homo sapiens, UniProt P29323)

ROCK2, sequence (O75116 whole entry): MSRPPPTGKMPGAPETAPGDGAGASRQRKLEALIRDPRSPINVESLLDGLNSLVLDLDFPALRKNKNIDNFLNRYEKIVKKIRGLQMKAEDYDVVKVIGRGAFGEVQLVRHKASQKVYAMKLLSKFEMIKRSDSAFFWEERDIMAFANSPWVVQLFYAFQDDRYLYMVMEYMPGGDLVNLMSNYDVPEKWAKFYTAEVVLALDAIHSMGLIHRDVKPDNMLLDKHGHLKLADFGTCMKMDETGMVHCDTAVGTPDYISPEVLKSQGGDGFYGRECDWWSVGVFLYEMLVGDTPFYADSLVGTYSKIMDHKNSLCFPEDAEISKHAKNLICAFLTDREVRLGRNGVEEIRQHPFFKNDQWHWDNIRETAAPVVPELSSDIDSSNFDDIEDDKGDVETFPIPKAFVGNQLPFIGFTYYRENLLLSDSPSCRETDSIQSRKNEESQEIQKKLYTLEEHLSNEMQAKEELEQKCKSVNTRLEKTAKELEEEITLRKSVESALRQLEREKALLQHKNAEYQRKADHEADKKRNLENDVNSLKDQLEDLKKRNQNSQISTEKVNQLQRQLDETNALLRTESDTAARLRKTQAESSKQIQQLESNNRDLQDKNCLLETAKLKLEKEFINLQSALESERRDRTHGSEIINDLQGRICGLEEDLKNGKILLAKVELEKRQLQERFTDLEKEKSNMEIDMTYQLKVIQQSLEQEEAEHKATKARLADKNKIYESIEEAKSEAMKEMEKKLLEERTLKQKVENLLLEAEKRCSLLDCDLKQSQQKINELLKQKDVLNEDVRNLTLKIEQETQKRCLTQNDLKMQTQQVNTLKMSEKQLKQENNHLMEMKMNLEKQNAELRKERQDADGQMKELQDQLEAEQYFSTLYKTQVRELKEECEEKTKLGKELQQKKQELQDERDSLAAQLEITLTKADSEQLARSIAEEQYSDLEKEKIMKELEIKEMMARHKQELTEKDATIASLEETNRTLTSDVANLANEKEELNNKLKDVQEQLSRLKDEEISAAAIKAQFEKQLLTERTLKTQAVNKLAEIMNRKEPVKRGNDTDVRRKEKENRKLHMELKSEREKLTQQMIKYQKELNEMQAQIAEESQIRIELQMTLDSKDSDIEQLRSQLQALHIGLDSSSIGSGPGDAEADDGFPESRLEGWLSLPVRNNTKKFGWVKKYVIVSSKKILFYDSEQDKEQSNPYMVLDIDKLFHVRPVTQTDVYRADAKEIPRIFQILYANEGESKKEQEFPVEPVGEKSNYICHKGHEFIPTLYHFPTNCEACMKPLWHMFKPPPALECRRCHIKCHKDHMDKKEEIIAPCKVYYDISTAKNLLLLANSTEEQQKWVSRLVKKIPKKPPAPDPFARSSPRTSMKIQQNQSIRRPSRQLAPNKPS
PRKG2, sequence (Q13237 whole entry): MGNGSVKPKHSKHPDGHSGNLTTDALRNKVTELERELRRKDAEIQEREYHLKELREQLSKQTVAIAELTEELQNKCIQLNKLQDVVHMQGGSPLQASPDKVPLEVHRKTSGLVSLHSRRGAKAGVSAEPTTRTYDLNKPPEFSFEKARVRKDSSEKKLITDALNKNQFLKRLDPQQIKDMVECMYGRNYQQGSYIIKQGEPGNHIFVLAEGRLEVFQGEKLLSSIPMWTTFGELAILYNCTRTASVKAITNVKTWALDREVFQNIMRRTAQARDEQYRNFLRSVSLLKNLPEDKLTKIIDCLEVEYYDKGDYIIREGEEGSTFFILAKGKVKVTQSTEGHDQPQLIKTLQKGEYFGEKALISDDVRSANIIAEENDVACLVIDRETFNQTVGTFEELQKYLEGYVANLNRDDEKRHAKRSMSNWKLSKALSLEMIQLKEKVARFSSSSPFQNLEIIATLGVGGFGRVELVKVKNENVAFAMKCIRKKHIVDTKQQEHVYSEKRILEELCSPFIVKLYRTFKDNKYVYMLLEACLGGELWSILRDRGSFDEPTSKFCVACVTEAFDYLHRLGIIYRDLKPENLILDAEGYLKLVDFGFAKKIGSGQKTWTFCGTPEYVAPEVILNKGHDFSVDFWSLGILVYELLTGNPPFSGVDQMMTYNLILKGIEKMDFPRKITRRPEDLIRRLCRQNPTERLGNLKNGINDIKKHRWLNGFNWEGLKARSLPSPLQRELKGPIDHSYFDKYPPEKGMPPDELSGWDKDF
IRAK1, sequence (P51617 whole entry): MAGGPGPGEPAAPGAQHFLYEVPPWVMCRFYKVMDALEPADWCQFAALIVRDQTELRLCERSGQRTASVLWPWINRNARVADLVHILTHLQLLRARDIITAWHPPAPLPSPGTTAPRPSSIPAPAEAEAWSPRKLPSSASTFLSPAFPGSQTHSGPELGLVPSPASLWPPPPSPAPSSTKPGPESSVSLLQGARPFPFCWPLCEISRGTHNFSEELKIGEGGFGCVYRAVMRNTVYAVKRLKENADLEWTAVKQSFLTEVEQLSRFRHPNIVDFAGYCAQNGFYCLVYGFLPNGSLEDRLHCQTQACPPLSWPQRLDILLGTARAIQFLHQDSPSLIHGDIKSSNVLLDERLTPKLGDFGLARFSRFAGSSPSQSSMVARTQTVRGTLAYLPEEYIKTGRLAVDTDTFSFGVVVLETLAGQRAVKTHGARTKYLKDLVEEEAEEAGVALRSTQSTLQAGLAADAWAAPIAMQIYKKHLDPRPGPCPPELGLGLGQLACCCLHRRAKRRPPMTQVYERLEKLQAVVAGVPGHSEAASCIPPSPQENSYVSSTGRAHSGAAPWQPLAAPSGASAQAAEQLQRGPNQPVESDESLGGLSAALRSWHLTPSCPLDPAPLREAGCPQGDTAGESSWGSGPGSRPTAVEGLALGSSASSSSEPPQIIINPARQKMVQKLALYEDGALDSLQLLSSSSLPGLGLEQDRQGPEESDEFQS
GAK, sequence (O14976 whole entry): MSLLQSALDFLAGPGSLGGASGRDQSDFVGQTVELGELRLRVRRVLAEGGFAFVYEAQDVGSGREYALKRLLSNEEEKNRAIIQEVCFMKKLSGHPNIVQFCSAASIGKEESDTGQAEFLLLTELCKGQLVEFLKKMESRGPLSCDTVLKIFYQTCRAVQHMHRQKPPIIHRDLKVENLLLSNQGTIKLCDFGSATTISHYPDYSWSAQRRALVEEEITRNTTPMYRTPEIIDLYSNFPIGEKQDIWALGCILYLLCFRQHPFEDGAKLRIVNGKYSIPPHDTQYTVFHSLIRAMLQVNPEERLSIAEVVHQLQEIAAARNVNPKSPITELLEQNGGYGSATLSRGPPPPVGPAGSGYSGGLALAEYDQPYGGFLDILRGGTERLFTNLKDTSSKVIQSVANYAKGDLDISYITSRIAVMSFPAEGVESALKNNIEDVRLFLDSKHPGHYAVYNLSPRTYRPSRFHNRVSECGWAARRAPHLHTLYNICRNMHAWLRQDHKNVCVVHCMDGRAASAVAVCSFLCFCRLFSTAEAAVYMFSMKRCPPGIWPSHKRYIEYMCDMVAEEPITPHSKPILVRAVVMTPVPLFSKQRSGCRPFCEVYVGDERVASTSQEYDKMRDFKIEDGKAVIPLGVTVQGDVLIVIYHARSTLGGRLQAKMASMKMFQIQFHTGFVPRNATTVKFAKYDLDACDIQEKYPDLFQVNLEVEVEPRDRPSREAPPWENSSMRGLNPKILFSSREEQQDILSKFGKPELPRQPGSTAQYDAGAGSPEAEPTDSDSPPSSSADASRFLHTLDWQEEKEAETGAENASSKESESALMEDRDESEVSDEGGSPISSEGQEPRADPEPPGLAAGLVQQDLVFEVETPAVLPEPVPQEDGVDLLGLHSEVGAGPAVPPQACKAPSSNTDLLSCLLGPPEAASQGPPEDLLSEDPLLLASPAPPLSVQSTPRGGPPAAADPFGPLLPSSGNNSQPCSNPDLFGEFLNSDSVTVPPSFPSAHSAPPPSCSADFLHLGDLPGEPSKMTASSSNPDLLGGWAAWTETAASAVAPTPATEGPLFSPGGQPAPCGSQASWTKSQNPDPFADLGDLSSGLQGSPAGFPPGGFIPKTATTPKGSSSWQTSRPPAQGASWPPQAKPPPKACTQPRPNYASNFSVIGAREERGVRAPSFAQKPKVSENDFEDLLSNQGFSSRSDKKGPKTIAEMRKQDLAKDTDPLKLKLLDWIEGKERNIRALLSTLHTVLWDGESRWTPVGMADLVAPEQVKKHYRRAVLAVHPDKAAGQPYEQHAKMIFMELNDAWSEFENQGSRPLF
CAMK1D, sequence (Q8IU85 whole entry): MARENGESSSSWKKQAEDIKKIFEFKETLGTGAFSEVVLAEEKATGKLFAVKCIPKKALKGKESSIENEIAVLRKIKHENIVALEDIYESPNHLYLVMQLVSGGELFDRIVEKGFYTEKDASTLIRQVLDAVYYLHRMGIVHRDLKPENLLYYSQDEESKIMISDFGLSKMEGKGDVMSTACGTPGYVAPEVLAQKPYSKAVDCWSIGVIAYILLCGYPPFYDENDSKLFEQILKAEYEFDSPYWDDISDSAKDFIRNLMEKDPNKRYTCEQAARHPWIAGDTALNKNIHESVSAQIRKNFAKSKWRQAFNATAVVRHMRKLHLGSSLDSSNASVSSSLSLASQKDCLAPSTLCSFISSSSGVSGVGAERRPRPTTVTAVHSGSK
T3 sequence (Q13882 whole entry): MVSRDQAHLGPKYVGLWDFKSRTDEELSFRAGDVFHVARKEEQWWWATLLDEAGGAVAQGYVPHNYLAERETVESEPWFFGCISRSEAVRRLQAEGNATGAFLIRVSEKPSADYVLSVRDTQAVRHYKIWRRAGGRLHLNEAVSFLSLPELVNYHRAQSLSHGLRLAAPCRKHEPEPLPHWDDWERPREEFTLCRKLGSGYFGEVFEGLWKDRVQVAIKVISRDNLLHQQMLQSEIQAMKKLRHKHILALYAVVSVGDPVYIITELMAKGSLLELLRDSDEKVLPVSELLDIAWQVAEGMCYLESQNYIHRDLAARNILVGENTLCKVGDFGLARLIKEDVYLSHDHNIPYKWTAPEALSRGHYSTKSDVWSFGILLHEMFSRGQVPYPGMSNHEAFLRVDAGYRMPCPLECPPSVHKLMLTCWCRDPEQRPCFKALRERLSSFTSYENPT

Row | SMILES | remaining binding at 10 µM (EIF2AK1) | remaining binding at 10 µM (EGFR) | remaining binding at 10 µM (FLT3(D835Y)) | remaining binding at 10 µM (IRAK1) | remaining binding at 10 µM (GAK) | remaining binding at 10 µM (FLT3(D835H)) | remaining binding at 10 µM (MST1R) | remaining binding at 10 µM (DDR2) | remaining binding at 10 µM (CAMK1D) | remaining binding at 10 µM (ERBB4) | remaining binding at 10 µM (CDKL1) | remaining binding at 10 µM (EGFR(G719C)) | remaining binding at 10 µM (MYLK4) | remaining binding at 10 µM (PRKG2) | remaining binding at 10 µM (YSK1) | remaining binding at 10 µM [1] | remaining binding at 10 µM (BRK) | remaining binding at 10 µM (DYRK1A) | remaining binding at 10 µM (ROCK2) | remaining binding at 10 µM (CTK) | also measured
1 | COc1ccc(-c2cnccc2-c2cnc(NC(=O)C(C)C)s2)c(C(F)(F)F)c1 [CRT0105446, N-{5-[3-(4-Methoxy-2-trifluoromethyl-phenyl)-pyridin-4-yl]-hiazol-2-yl}-isobutyramide] | 100% | 100% | 20% | 94% | 92% | 15% | 100% | 0.4% | 79% | 100% | 80% | 89% | 71% | 100% | 100% | 89% | 100% | 76% | 95% | 100% | remaining binding at 10 µM (PIK3CA(M1043I)): 100%; remaining binding at 10 µM [2]: 81%; remaining binding at 10 µM (EPHB2): 100%
2 | Cc1ccc(-c2cnccc2-c2cnc(Nc3ccc(O)cc3)s2)c(Cl)c1 [CRT0105950, 4-{5-[3-(2-Chloro-4-methyl-phenyl)-pyridin-4-yl]-thiazol-2-ylamino}-phenol] | 97% | 53% | 1.2% | 56% | 22% | 0.95% | 92% | 12% | 63% | 94% | 77% | 71% | 9.4% | 73% | 22% | 50% | 100% | 30% | 77% | 100% | remaining binding at 10 µM (PIK3CA(M1043I)): 100%; remaining binding at 10 µM [2]: 74%; remaining binding at 10 µM (EPHB2): 81%
